The source of these data is patent US20250042848A1, “DEUTERATED FUNCTIONALIZED DERIVATIVES OF alpha-ALANINE, IN [sequence] FOR THE TREATMENT OF NEUROLOGICAL DISEASES” (UNIWERSYTET JAGIELLONSKI, priority 2021, published 2025).

For data set [1] the following is noted: mouse, in vivo, po, 40 mg/kg. Here is the method: The animals were housed at a temperature of 22-24° C., humidity of 50% (+/−10%), in a room providing 15 air changes per hour, with 12:12 hours light-dark cycle. In addition, they had constant access to food and water. […] Blood was allowed to clot at room temperature for 20 min, then centrifuged for 5 min, 10,000×g (Eppendorf miniSpin centrifuge, Germany) to obtain serum. The obtained biological material was stored at −70° C. until analysis.
Concentrations of the tested compounds in murine serum and brain homogenates were determined by high-performance liquid chromatography-tandem mass spectrometry (HPLC-MS/MS). Analyzes were performed on a Sciex QTRAP 4500 triple quad mass spectrometer coupled to an Exion LC AC HPLC (Danaher Corporation, USA). The chromatographic separation was carried out on a Hypersil Gold™ C18 column (3×50 mm, 5 μm, Thermo Scientific, USA), using a mixture of acetonitrile and water with 0.1% formic acid as the mobile phase. Analyzes were performed at 40° C. and the gradient shown in Table 7 was used to obtain optimal retention time. Valsartan was used as an internal standard. Positive ionization mode (ESI+) was used for maximum sensitivity. […]
Non-compartmental analysis was used to estimate the pharmacokinetic parameters. Maximum concentration (Cmax) and time necessary to reach maximum blood concentration-tmax were evaluated directly from the concentration-time plot.

The subject of data set [2] is maximal electroshock seizures in mice. In words: Maximal electroshock seizure test (MES). Format: in vivo. As for the experimental part:
(§1) Initial screening was performed on groups of 4 mice. The mean effective dose (ED50) in a given test and the neurotoxic dose in the rotarod test (TD50) were estimated on the basis of the results obtained on 3-4 groups of animals consisting of 6 animals.
In the maximal electroshock seizure test (MES), the seizures were induced by 500 V, 25 mA electrical stimulus of 0.2 s in duration. The electrical pulse was generated using an electric shock generator (Rodent shocker, Type 221, Hugo Sachs Elektronik, Germany) and delivered to the animal using electrodes placed on the auricles. The study was conducted 30 minutes/2 hours after intraperitoneal administration of the compounds at various doses. During the experiment, the number of animals that experienced a seizure episode in the form of hindlimb tonic extension was counted (Łuszczki, J.J. et al. Fundam. Clin. Pharmacol. 2008, 22, 69-74).
(§2) The ED50 (effective dose) and TD50 (toxic dose) values along with the corresponding 95% confidence limits were calculated based on the Litchfield and Wilcoxon method (Litchfield, J.T.; Wilcoxon, F. J. Pharmacol. Exp. Ther. 1949, 96, 99-113). To perform a statistical evaluation of the results in the scPTZ test, one-way ANOVA variance analysis followed by Dunnett's post hoc test were used. The values were considered statistically significant if p<0.05.
Background: In the maximal electroshock model the usual endpoint is tonic extension of the hind limbs.

Data set [3] deals with psychomotor seizures induced by a 32 mA, 6 Hz stimulus in mice. In words: Psychomotor seizure test 6 Hz (32 mA). Type of data set: in vivo. As for the experimental part: as §1
(§3) In the psychomotor seizure test (6 Hz test), seizures were induced by a 32 mA and/or 44 mA electrical stimulus of a frequency of 6 pulses per second. An electrical pulse was generated using an electric shock generator (ECT Unit 57800; Ugo Basile, Gemonio, Italy) and delivered to the animal using corneal electrodes. Before starting the test, the eye surface was gently moistened with a solution of local anesthetic (1% lidocaine solution). The study was conducted 30 minutes/2 hours after intraperitoneal administration of the compounds at various doses. An electrical stimulus was delivered continuously for a period of 3 seconds, followed by observation of the animal for a period of 10 seconds. During the experiment, the number of animals with an episode of psychomotor convulsions was counted: motor inhibition, staggering, maintaining a sitting posture, forelimb clonus, twitching of the vibrissae and Straub-tail were observed (Leclercq, K.; Kaminski, R.M. Epilepsia 2015, 56, 310-318).
as §2

Data set [4] deals with psychomotor seizures induced by a 44 mA, 6 Hz stimulus in mice. In words: Psychomotor seizure test 6 Hz (44 mA). Format: in vivo. The following applies: in mg/kg. As for the experimental part: as §1, §3, §2
For data set [5], the system named is motor coordination of mice. Description: Rotarod test (motor coordination, acute neurotoxicity). Format: in vivo. The following applies: in mg/kg. As for the experimental part:
as §1
The effect of the tested compounds on motor coordination was assessed in the rotarod test (May Commat, RR 0711 RotaRod, Turkey). The day before the actual experiment, the mice were trained on a rod rotating at 10 revolutions per minute (rpm) for 3 minutes. The experiment was performed 30 minutes and 2 hours after administration of the compounds. The motor coordination of the animals was tested at the speed of the rotating rod: 10 rpm for 60 seconds. The measure of neurotoxicity was the inability to stay on the rod for a given time (Łuszczki, J.J. et al. Eur. Neuropsychopharmacol. 2005, 6, 609-616).
as §2
Background: Falling from the rotarod earlier than controls is read as motor impairment.

The subject of data set [6] is human liver microsomes (HLMs). In words: In vitro metabolic stability, human liver microsomes. Format: in vitro ADME. As to conditions: 120-minute incubation with HLMs. Here is the method: Metabolic stability assessment was performed using mouse (MLMs) and human (HLMs) liver microsomes purchased from Sigma-Aldrich (St. Louis, MO, USA). The detailed methodology is described in the literature (Kamiński et al. J. Med. Chem. 2015, 58, 5274-5286). The reaction mixture was prepared by mixing […] of the tested compound with mouse or human microsomes (1 mg/mL) in 10 mM TRIS-HCl buffer. The reaction mixture was pre-incubated for 5 min at 37° C. After the initial incubation, 50 μL of the NADPH Regeneration System (Promega, Madison, WI, USA) was added to initiate the reaction. The reaction mixture was then incubated for 120 min at 37° C. 200 μL of cold extra pure methanol was added to complete the reaction. The mixture was then centrifuged at 14,000 g for 15 min and the supernatants were analyzed using a Waters ACQUITY™ TQD LC/MS system with a TQ detector (Waters, Milford, USA). Each experiment was performed in triplicate.

Data set [7] deals with motor coordination of mice. The following applies: in vivo; cited from earlier work.
For data set [8], the system named is spontaneous locomotor activity of mice. The following applies: mouse, in vivo; cited from earlier work.
Data set [9] deals with human liver microsomes (HLMs). As to conditions: cited from earlier work.
The target of another data set is CYP3A4 (Homo sapiens, UniProt P08684). The following applies: cited from earlier work.
A further data set concerns CYP2D9. The following applies: cited from earlier work.
Data set [10] relates to psychomotor seizures induced by a 32 mA, 6 Hz stimulus in mice. The following applies: 0.5 h, i.p.; own data disclosed in Abram et al. Bioorg. Chem. 2021; in mg/kg; cited from earlier work.
Data set [11] relates to pentylenetetrazole-induced clonic seizures in mice. As to conditions: 0.5 h, i.p.; own data disclosed in Abram et al. Bioorg. Chem. 2021; in mg/kg; cited from earlier work.
Where [12] appears, read: 0.5 h after i.p. administration.
[13] abbreviates: 2.0 h after i.p. administration.

Read-outs that look alike come from different tables or passages of the source.

Sequence of CYP3A4 (P08684 whole entry): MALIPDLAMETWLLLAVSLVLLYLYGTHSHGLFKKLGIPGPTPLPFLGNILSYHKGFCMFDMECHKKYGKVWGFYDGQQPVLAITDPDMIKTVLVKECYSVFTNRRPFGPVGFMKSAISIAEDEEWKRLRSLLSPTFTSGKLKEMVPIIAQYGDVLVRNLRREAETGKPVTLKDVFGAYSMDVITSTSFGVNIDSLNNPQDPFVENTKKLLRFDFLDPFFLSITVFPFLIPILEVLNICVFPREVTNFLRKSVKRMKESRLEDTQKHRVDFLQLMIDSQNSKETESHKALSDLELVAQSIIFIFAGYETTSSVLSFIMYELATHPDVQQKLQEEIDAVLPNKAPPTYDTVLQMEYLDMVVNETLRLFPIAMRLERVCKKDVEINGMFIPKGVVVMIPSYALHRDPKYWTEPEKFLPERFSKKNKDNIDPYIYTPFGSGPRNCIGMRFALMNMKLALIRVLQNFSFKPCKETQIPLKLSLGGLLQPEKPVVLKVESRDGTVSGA

In [1], `CC(C(=O)NCc1ccccc1F)N1C(=O)CCC1=O` (centres unmarked) [Compound 2, reference compound] had a tmax of 30 min. Also, the ED50 MES in data set [2] (setting [12]) turned out to be 23.6 mg/kg; in data set [2] (setting [13]), 73.3 mg/kg. The ED50 6 Hz (32 mA) in data set [3] (setting [12]) is 16.7 mg/kg; in data set [3] (setting [13]), 38.1 mg/kg. The “ED50 6 Hz (44 mA)” value is 78.3 in data set [4] (setting [12]) and 86.8 in [4] (setting [13]). For the same compound, the results for the “TD50 Rotarod” value in data set [5] (setting [12]) and in data set [5] (setting [13]) were more than 100 and more than 300, respectively. In addition, in [6], the metabolic stability result is given as “high metabolic stability”. In data set [7], the “effect on mouse motor coordination in the rotarod test” value is “minimal effect”. Also, in data set [8], the “sedative effect in spontaneous locomotor activity test on mice” value is “no sedative effect”. The “metabolic stability on human microsomes” value in data set [9] is “very high metabolic stability”. Moreover, on CYP3A4, the “interaction with CYP3A4 isoform of cytochrome P-450” value is “no interaction”. For the same compound, the “interaction with CYP2D9 isoform of cytochrome P-450” value with CYP2D9 is given as “no interaction”.

Take `CCCC(CCC)C(=O)O` [VPA, valproic acid]: in [10], the “ED50 6 Hz (32 mA)” value was 130.6. Further, the “ED50 scPTZ” value in data set [11] is reported as 239.4.
